From ChEMBL document CHEMBL4184210, “Optimization of novel monobactams with activity against carbapenem-resistant Enterobacteriaceae - Identification of LYS228” (Bioorg Med Chem Lett, 2018)
≈ marks a conversion by molar mass, not a printed value.

Tests used:
Escherichia coli [1] = experiment: microbe, parasite or virus in culture
Description: Antimicrobial activity against Escherichia coli expressing beta-lactamase CMY-2 by CLSI broth microdilution method

Escherichia coli [2] = experiment: Antimicrobial activity against Escherichia coli expressing beta-lactamase KPC-2 by CLSI broth microdilution method; assay type: functional
[3] = Chemical stability in pH 7.4 potassium phosphate buffer assessed as half life for compound hydrolysis at 37 degC by UPLC and mass spectrometry; assay type: physicochemical
Escherichia coli [4] = experiment: microbe, parasite or virus in culture; remark: listed apart in the source
Description: Antimicrobial activity against Escherichia coli expressing beta-lactamase TEM-10 by CLSI broth microdilution method

Escherichia coli [5] = experiment: microbe, parasite or virus in culture; remark: listed apart in the source
Description: Antimicrobial activity against Escherichia coli expressing beta-lactamase SHV-12 by CLSI broth microdilution method

Escherichia coli [6] = experiment: microbe, parasite or virus in culture; remark: listed apart in the source
Description: Antimicrobial activity against Escherichia coli expressing beta-lactamase AmpC by CLSI broth microdilution method

Escherichia coli [7] = experiment: microbe, parasite or virus in culture; remark: listed apart in the source
Description: Antimicrobial activity against Escherichia coli expressing beta-lactamase CTXM-15 by CLSI broth microdilution method

Escherichia coli [8] = experiment: microbe, parasite or virus in culture; remark: listed apart in the source
Description: Antimicrobial activity against wild type Escherichia coli by CLSI broth microdilution method

Row | SMILES | MIC (Escherichia coli [1]) [µg/mL] | MIC (Escherichia coli [2]) [µg/mL] | half-life [3] [h] | MIC (Escherichia coli [4]) [µg/mL] | MIC (Escherichia coli [5]) [µg/mL] | MIC (Escherichia coli [6]) [µg/mL] | MIC (Escherichia coli [7]) [µg/mL] | MIC (Escherichia coli [8]) [µg/mL]
1 | CC(C)(O/N=C(\C(=O)N[C@@H]1C(=O)N(S(=O)(=O)O)[C@@H]1Cn1cc(NC(=O)C[N+](C)(C)C)nn1)c1csc(N)n1)C(=O)O | 8 | 2 | > 37 | 8 | 8 | 2 | 2 | 1
2 | CC(C)(O/N=C(\C(=O)N[C@@H]1C(=O)N(S(=O)(=O)O)[C@@H]1Cn1ncnc1CN)c1csc(N)n1)C(=O)O (stereo in doubt) | 8 (≈ 15.1 µM) | 4 (≈ 7.53 µM) | > 37 | 4 (≈ 7.53 µM) | 4 (≈ 7.53 µM) | 8 (≈ 15.1 µM) | 2 (≈ 3.76 µM) | 2 (≈ 3.76 µM)
3 | C[C@@H](O)[C@H]1C(=O)N2C(C(=O)O)=C(SCCN=CN)C[C@H]12 [IMIPENEM ANHYDROUS] | – | – | 46 | – | – | – | – | –
4 | C[C@@H]1CN(C[C@@H]2[C@H](NC(=O)/C(=N\OC(C)(C)C(=O)O)c3csc(N)n3)C(=O)N2S(=O)(=O)O)C(=O)O1 (stereo in doubt) | 4 (≈ 7.48 µM) | 1 (≈ 1.87 µM) | > 37 | 8 (≈ 15 µM) | 1 (≈ 1.87 µM) | 2 (≈ 3.74 µM) | 1 (≈ 1.87 µM) | 1 (≈ 1.87 µM)
5 | Nc1nc(/C(=N/OC2(C(=O)O)CCC2)C(=O)N[C@@H]2C(=O)N(S(=O)(=O)O)[C@@H]2Cn2cncn2)cs1 (stereo in doubt) | 4 (≈ 7.77 µM) | 1 (≈ 1.94 µM) | – | 4 (≈ 7.77 µM) | 1 (≈ 1.94 µM) | 2 (≈ 3.89 µM) | 0.5 (≈ 0.972 µM) | 1 (≈ 1.94 µM)
6 | Cc1ncnn1C[C@@H]1[C@H](NC(=O)/C(=N\OC(C)(C)C(=O)O)c2csc(N)n2)C(=O)N1S(=O)(=O)O (stereo in doubt) | 8 (≈ 15.5 µM) | 2 (≈ 3.87 µM) | > 37 | 8 (≈ 15.5 µM) | 4 (≈ 7.74 µM) | 8 (≈ 15.5 µM) | 4 (≈ 7.74 µM) | 4 (≈ 7.74 µM)
7 | CC(C)(O/N=C(\C(=O)N[C@@H]1C(=O)N(S(=O)(=O)O)[C@@H]1CN1C[C@H](CNC(=N)N)OC1=O)c1csc(N)n1)C(=O)O (stereo in doubt) | 32 (≈ 54.1 µM) | 16 (≈ 27 µM) | > 37 | > 64 | 16 (≈ 27 µM) | 16 (≈ 27 µM) | 8 (≈ 13.5 µM) | 8 (≈ 13.5 µM)
8 | CC(C)(O/N=C(\C(=O)N[C@@H]1C(=O)N(S(=O)(=O)O)[C@@H]1Cn1cc(C(=O)O)nn1)c1csc(N)n1)C(=O)O (stereo in doubt) | 64 (≈ 117 µM) | 16 (≈ 29.3 µM) | > 37 | 32 (≈ 58.6 µM) | 16 (≈ 29.3 µM) | 32 (≈ 58.6 µM) | 16 (≈ 29.3 µM) | 32 (≈ 58.6 µM)
9 | C[C@@H](O/N=C(\C(=O)N[C@@H]1C(=O)N(S(=O)(=O)O)[C@@H]1Cn1cncn1)c1csc(N)n1)C(=O)O (stereo in doubt) | 16 (≈ 32.8 µM) | 1 (≈ 2.05 µM) | – | 1 (≈ 2.05 µM) | 2 (≈ 4.09 µM) | 4 (≈ 8.19 µM) | 0.5 (≈ 1.02 µM) | 1 (≈ 2.05 µM)
10 | CC(C)(O/N=C(\C(=O)N[C@@H]1C(=O)N(S(=O)(=O)O)[C@@H]1Cn1ncnc1CNC(=N)N)c1csc(N)n1)C(=O)O (stereo in doubt) | 32 (≈ 55.8 µM) | 32 (≈ 55.8 µM) | > 37 | 16 (≈ 27.9 µM) | 16 (≈ 27.9 µM) | 32 (≈ 55.8 µM) | 16 (≈ 27.9 µM) | 16 (≈ 27.9 µM)
11 | CC(C)(O/N=C(\C(=O)N[C@@H]1C(=O)N(S(=O)(=O)O)[C@@H]1CN1C[C@@H](CO)OC1=O)c1csc(N)n1)C(=O)O (stereo in doubt) | 16 (≈ 29.1 µM) | 32 (≈ 58.1 µM) | > 37 | 64 (≈ 116 µM) | 32 (≈ 58.1 µM) | 32 (≈ 58.1 µM) | 16 (≈ 29.1 µM) | 16 (≈ 29.1 µM)
12 | C[C@H](O/N=C(\C(=O)N[C@@H]1C(=O)N(S(=O)(=O)O)[C@@H]1Cn1cncn1)c1csc(N)n1)C(=O)O (stereo in doubt) | 8 (≈ 16.4 µM) | 1 (≈ 2.05 µM) | – | 4 (≈ 8.19 µM) | 4 (≈ 8.19 µM) | 2 (≈ 4.09 µM) | 0.125 (≈ 0.256 µM) | 0.125 (≈ 0.256 µM)
13 | Nc1nc(/C(=N/OCC(=O)O)C(=O)N[C@@H]2C(=O)N(S(=O)(=O)O)[C@@H]2Cn2cncn2)cs1 (stereo in doubt) | 8 (≈ 16.9 µM) | 0.5 (≈ 1.05 µM) | – | 1 (≈ 2.11 µM) | 16 (≈ 33.7 µM) | 16 (≈ 33.7 µM) | 0.25 (≈ 0.527 µM) | 0.125 (≈ 0.263 µM)

Further compounds by falling MIC (Escherichia coli [1]), results first:

Row | MIC (Escherichia coli [1]) [µg/mL] | MIC (Escherichia coli [2]) [µg/mL] | half-life [3] [h] | MIC (Escherichia coli [4]) [µg/mL] | MIC (Escherichia coli [5]) [µg/mL] | MIC (Escherichia coli [6]) [µg/mL] | MIC (Escherichia coli [7]) [µg/mL] | MIC (Escherichia coli [8]) [µg/mL] | SMILES
14 | 4 (≈ 7.33 µM) | 2 (≈ 3.67 µM) | > 37 | 2 (≈ 3.67 µM) | 4 (≈ 7.33 µM) | 2 (≈ 3.67 µM) | 1 (≈ 1.83 µM) | 1 (≈ 1.83 µM) | CC(C)(O/N=C(\C(=O)N[C@@H]1C(=O)N(S(=O)(=O)O)[C@@H]1Cn1cc(CCN)nn1)c1csc(N)n1)C(=O)O (stereo in doubt)
15 | 4 (≈ 7.27 µM) | 4 (≈ 7.27 µM) | > 37 | > 64 | 2 (≈ 3.63 µM) | 2 (≈ 3.63 µM) | 1 (≈ 1.82 µM) | 2 (≈ 3.63 µM) | CC(C)(O/N=C(\C(=O)N[C@@H]1C(=O)N(S(=O)(=O)O)[C@@H]1CN1C[C@H](CO)OC1=O)c1csc(N)n1)C(=O)O (stereo in doubt)
16 | 4 (≈ 7.51 µM) | 4 (≈ 7.51 µM) | > 37 | 8 (≈ 15 µM) | 16 (≈ 30 µM) | 4 (≈ 7.51 µM) | 1 (≈ 1.88 µM) | 0.5 (≈ 0.939 µM) | CC(C)(O/N=C(\C(=O)N[C@@H]1C(=O)N(S(=O)(=O)O)[C@@H]1Cn1cc(CO)nn1)c1csc(N)n1)C(=O)O (stereo in doubt)
17 | 2 (≈ 3.64 µM) | 1 (≈ 1.82 µM) | > 37 | 8 (≈ 14.6 µM) | 1 (≈ 1.82 µM) | 1 (≈ 1.82 µM) | 1 (≈ 1.82 µM) | 1 (≈ 1.82 µM) | CC(C)(O/N=C(\C(=O)N[C@@H]1C(=O)N(S(=O)(=O)O)[C@@H]1CN1C[C@H](CN)OC1=O)c1csc(N)n1)C(=O)O (stereo in doubt)
18 | 1 (≈ 2 µM) | 0.25 (≈ 0.5 µM) | – | 0.5 (≈ 0.999 µM) | 1 (≈ 2 µM) | 1 (≈ 2 µM) | 0.125 (≈ 0.25 µM) | 0.125 (≈ 0.25 µM) | Nc1nc(/C(=N/OC2(C(=O)O)CC2)C(=O)N[C@@H]2C(=O)N(S(=O)(=O)O)[C@@H]2Cn2cncn2)cs1 (stereo in doubt)
19 | 1 (≈ 1.82 µM) | 1 (≈ 1.82 µM) | > 37 | 2 (≈ 3.64 µM) | 0.5 (≈ 0.91 µM) | 1 (≈ 1.82 µM) | 0.5 (≈ 0.91 µM) | 0.5 (≈ 0.91 µM) | CC(C)(O/N=C(\C(=O)N[C@@H]1C(=O)N(S(=O)(=O)O)[C@@H]1CN1C[C@@H](CN)OC1=O)c1csc(N)n1)C(=O)O (stereo in doubt)
20 | 1 (≈ 1.88 µM) | 2 (≈ 3.76 µM) | > 37 | 2 (≈ 3.76 µM) | 4 (≈ 7.53 µM) | 1 (≈ 1.88 µM) | 1 (≈ 1.88 µM) | 1 (≈ 1.88 µM) | CC(C)(O/N=C(\C(=O)N[C@@H]1C(=O)N(S(=O)(=O)O)[C@@H]1Cn1cc(CN)nn1)c1csc(N)n1)C(=O)O (stereo in doubt)
21 | 0.5 (≈ 0.872 µM) | 0.5 (≈ 0.872 µM) | > 37 | 1 (≈ 1.74 µM) | 1 (≈ 1.74 µM) | 1 (≈ 1.74 µM) | 0.25 (≈ 0.436 µM) | 0.25 (≈ 0.436 µM) | CC(C)(O/N=C(\C(=O)N[C@@H]1C(=O)N(S(=O)(=O)O)[C@@H]1Cn1cc(CNC(=N)N)nn1)c1csc(N)n1)C(=O)O (stereo in doubt)
22 | 0.25 (≈ 0.423 µM) | 1 (≈ 1.69 µM) | > 37 | 2 (≈ 3.38 µM) | 0.25 (≈ 0.423 µM) | 0.25 (≈ 0.423 µM) | 0.125 (≈ 0.211 µM) | 0.25 (≈ 0.423 µM) | CC(C)(O/N=C(\C(=O)N[C@@H]1C(=O)N(S(=O)(=O)O)[C@@H]1CN1C[C@@H](CNC(=N)N)OC1=O)c1csc(N)n1)C(=O)O (stereo in doubt)
